According to ChEMBL document CHEMBL5674888, “PRMT5 Promotes Human Lung Cancer Cell Apoptosis via Akt/Gsk3β Signaling Induced by Resveratrol” (Cell Transplant, 2019):
The source made the active and inactive calls.

What was measured:
Assay type in all cases: functional, cell-based
[1] = system: A549; assay: Antiproliferative activity against resveratrol-induced human lung A549 cells at 100 nM measured after 5 days by CCK-8 assay; details: time 5.0 day
[2] = system: ASTC-a-1; assay: Antiproliferative activity against resveratrol-induced human lung ASTC-a-1 cells at 100 nM measured after 5 days by CCK-8 assay; details: time 5.0 day
[3] = system: A549; assay: Induction of apoptosis in resveratrol-induced human lung A549 cells at 100 nM assessed as increase in cleaved caspase-3 expression measured by immunoblotting method
[4] = system: ASTC-a-1; assay: Induction of apoptosis in resveratrol-induced human lung ASTC-a-1 cells at 100 nM assessed as increase in cleaved caspase-3 expression measured by immunoblotting method
[5] = system: A549; assay: Induction of apoptosis in resveratrol-induced human lung A549 cells assessed as decrease in pAkt level at Thr308 measured by immunoblotting method
[6] = system: A549; assay: Induction of apoptosis in resveratrol-induced human lung A549 cells assessed as decrease in pAkt level at Ser473 measured by immunoblotting method
[7] = system: A549; assay: Induction of apoptosis in resveratrol-induced human lung A549 cells assessed as decrease in pGSK3beta level at Ser9 measured by immunoblotting method
[8] = system: A549; assay: Induction of apoptosis in resveratrol-induced human lung A549 cells assessed as decrease in Cyclin D1 level measured by immunoblotting method
[9] = system: A549; assay: Induction of apoptosis in resveratrol-induced human lung A549 cells assessed as decrease in Cyclin E1 level measured by immunoblotting method

Measured: Activity

O=C(NC[C@H](O)CN1CCc2ccccc2C1)c1ccnc(NC2CCC2)c1
active: all assays above
